The record followed here is ChEMBL document CHEMBL4196057, “The chemical diversity and structure-based evolution of non-peptide CXCR4 antagonists with diverse therapeutic potential” (Eur J Med Chem, 2018).

The structures appear in SMILES notation.

Series [1] concerns Human immunodeficiency virus 1. The series can be described thus: Antiviral activity against HIV1 infected in human PBMC measured at 7 to 10 days post infection by ELISA. The settings on record: Human immunodeficiency virus 1, PBMC. It counts as functional, organism-based. On the technique in general: ELISA stands for enzyme-linked immunosorbent assay.
Series [2] deals with T1, C-X-C chemokine receptor type 4 (Homo sapiens, UniProt P61073). The series can be described thus: Antagonist activity at CXCR4 (unknown origin). Type of series: functional.
Series [3] deals with Human immunodeficiency virus. The experiment in a line: Antiviral activity against HIV R4. It counts as functional, organism-based. The settings on record: Human immunodeficiency virus 1, R4.
In series [4] the target is T1, C-X-C chemokine receptor type 4. The series can be described thus: Inhibition of SDF-1 binding to CXCR4 (unknown origin).
For series [5], the system named is Human immunodeficiency virus 1. The series can be described thus: Antiviral activity against HIV1 3B. It counts as functional, organism-based. The note with it: Human immunodeficiency virus 1, 3B.
For series [6], the system named is Human immunodeficiency virus 1. The series can be described thus: Antiviral activity against HIV1 R5 infected in human PBMC after 1 hr by ELISA. Type of series: functional, organism-based. The note with it: Human immunodeficiency virus 1, R5, PBMC.
Series [7] concerns Human immunodeficiency virus 1. The series can be described thus: Antiviral activity against HIV1 3B infected in human PBMC after 1 hr by ELISA. Type of series: functional, organism-based. The note with it: Human immunodeficiency virus 1, 3B.
Series [8] deals with Human immunodeficiency virus 1. The series can be described thus: Antiviral activity against HIV1 NL4-3 infected in human PBMC after 1 hr by ELISA. Type of series: functional, organism-based. The settings on record: Human immunodeficiency virus 1, NL4-3, PBMC.
Series [9] relates to Human immunodeficiency virus 1. The series can be described thus: Antiviral activity against HIV1 R5/X4 infected in human PBMC after 1 hr by ELISA. Type of series: functional, organism-based. The note with it: Human immunodeficiency virus 1, R5/X4, PBMC.
Series [10] deals with Human immunodeficiency virus 1. The experiment in a line: Antiviral activity against HIV1 3B infected in human MT4 cells assessed as inhibition of virus induced cytopathic effect after 5 days by MTT assay. It counts as functional, organism-based. The note with it: Human immunodeficiency virus 1, 3B, MT4, 120 h. In general terms: Protection from cytopathic effect is a common read-out in antiviral testing.

Series [11] deals with T1, C-X-C chemokine receptor type 4. The experiment in a line: Inhibition of SDF-1 binding to CXCR4 (unknown origin) at 10 uM relative to control.
Series [12] has as its system Human immunodeficiency virus 1. The experiment in a line: Antiviral activity against HIV1 assessed as inhibition of virus induced cytopathic effect. It counts as functional, organism-based.
Series [13] concerns the target T1, C-X-C chemokine receptor type 4. The experiment in a line: Displacement of [125I]SDF-1 from human CXCR4 expressed in HEK293 cell membranes after 1.5 hrs by Topcount method. Background: In a radioligand displacement assay an active substance lowers the binding of a labelled ligand.
The target is the same in series [14]. The series can be described thus: Displacement of [125I]SDF-1alpha from CXCR4 in human MT4 cells after 2 hrs by scintillation counting analysis. Type of series: cell-based.
Series [15] has as its system Human immunodeficiency virus 1. The series can be described thus: Antiviral activity against HIV1 3B infected in human MT4 cells assessed as inhibition of virus replication by MTT assay. Type of series: functional, organism-based. The settings on record: Human immunodeficiency virus 1, 3B.
Series [16] in a line: Cytotoxicity against human MT4 cells assessed as reduction in cell viability. It counts as cell-based.
Series [17] in a line: Bioavailability in Wistar rat at 200 mg/ml/kg administered intraduodenal by LC-MS analysis. It counts as ADME, organism-based. The note with it: in vivo.
A short description of series [18]: Plasma concentration in Wistar rat at 200 mg/ml/kg administered intraduodenal after 60 mins by LC-MS analysis. Type of series: ADME.

T1 sequence (P61073 whole entry): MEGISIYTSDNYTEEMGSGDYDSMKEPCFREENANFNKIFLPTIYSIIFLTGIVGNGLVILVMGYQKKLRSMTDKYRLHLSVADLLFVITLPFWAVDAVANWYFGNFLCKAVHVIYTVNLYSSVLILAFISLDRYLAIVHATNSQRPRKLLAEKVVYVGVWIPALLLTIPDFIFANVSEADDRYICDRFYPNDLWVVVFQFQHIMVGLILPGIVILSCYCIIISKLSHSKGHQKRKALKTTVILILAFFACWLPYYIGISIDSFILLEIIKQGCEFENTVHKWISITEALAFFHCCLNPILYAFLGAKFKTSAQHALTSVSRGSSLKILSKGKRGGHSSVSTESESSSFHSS

By EC50 is commonly meant the concentration giving half of the maximal effect. `CCCN(CCC)CCCCN(C)Cc1ccc(CN(Cc2ncc[nH]2)Cc2nccn2C)cc1` showed an EC50 in [1] of 0.0003 to 0.001 µM.

A word on the IC50: it is the midpoint of a concentration-inhibition curve. Lower therefore signals greater potency in that assay. As to `O=C(NCCc1ccc2c(n1)NCCC2)Nc1ccc(C(F)(F)F)cc1`, the IC50 is 0.6 µM in series [2] and 0.2 to 50 µM in [3].

`CC(C)(NC[C@@H]1CCN(CCc2c[nH]c3ccc(-n4cnnc4)cc23)C1)c1ccccc1` had an IC50 in series [4] of 0.007 to 0.02 µM. In turn, `c1cc(CN2CCCNCCNCCCNCC2)ccc1CN1CCCNCCNCCCNCC1` [PLERIXAFOR] yielded an EC50 in series [5] of 0.003 µM. Take `CN(CCc1ccccc1)C[C@@H]1CCN(CCc2c[nH]c3ccc(-n4cnnc4)cc23)C1`: the IC50 in [4] fell in the range of 0.007 to 0.02 µM.

Turning to `O=C(NCCc1ccc2c(n1)NCCC2)Nc1cccc2ccccc12`, the IC50 in [2] was 0.6 µM; in [3], 0.2 to 50 µM. Take `Clc1cc(CN2CCCNCCNCCCNCC2)cc(Cl)n1`: the IC50 in series [6], in series [7], in series [8] and in [9] was 1.2 to 26.5 µM each time. With `CC1CCCCN1CCCNCc1ccc(CNCCCN2CCCCC2C)cc1` (centres undefined), the EC50 in [10] was 0.0193 µM.

In series [5], `C1CNCCNCCCN(CCCN2CCCNCCNCCCNCC2)CCNC1` returned an EC50 of 0.248 µM. As to `FC(F)(F)c1ccc(NC(=S)NCCc2ccc3c(n2)NCCC3)cc1`, the IC50 was 0.2 µM in series [2] and 0.2 to 50 µM in series [3]. `CCCN(CCC)Cc1ccc(NC(=O)c2ccc(CN(Cc3ncc[nH]3)Cc3ncc[nH]3)cc2)cc1` gave an EC50 in series [1] of 0.002 µM. On to `CN1CCN(c2cc(N)nc(NCc3ccc(CNCCCNC4CCCCC4)cc3)n2)CC1`, for which the IC50 in [2] was less than 0.02 µM. `CC(C)CN(CCC[C@H](NC(=O)c1ccc(CNCc2ncc[nH]2)cc1)C(=O)N[C@@H](C)c1cccc2ccccc12)CC(C)C`: in [10], the EC50 turned out to be 0.0067 µM. Compound `Nc1cc(N2CCNCC2)nc(NCc2ccc(CNCCCNC3CCCCC3)cc2)n1` came in with an IC50 in series [2] of less than 0.02 µM. For the compound `C1CNCCNCCCNC(C2CNCCCNCCNCCCN2)CNC1` (centres undefined), a half-maximal effect in [5] (EC50) was put at 0.144 µM.

One may read the inhibition as the drop in the measured response relative to a control, in per cent. A low value points to little suppression. `NCCNc1nccc(N2CCCCCC2)n1`: the inhibition in series [11] was greater than 50%.

As for `COc1ccc(NC(=O)NCCc2ccc3c(n2)NCCC3)cc1OC`, the IC50 in [2] was 0.68 µM; in [3], 0.2 to 50 µM.

For `c1ccc(CNCc2ccc(CN3CCCNCCNCCCNCC3)cc2)nc1`, the EC50 in series [12] is 0.009 µM. In series [2], `c1ccc(CNCCN(CCNCc2ccccn2)Cc2ccc(CNCc3nc4ccccc4[nH]3)cc2)nc1` displayed an IC50 of 0.004 to 0.1 µM.

Turning to `Cc1ccsc1CN1CCC2(CC1)CCN(Cc1ccc(C(=O)N(Cc3ncc[nH]3)Cc3ncc[nH]3)cc1)C2`, in series [4], the IC50 was 0.011 µM. `c1cc(CN2CCCNCCNCCCNCC2)ccc1CNCCCN1CCOCC1`: in [10], the EC50 worked out at 0.134 µM.

Regarding `CC1CCCCN1CCCNCc1ccc(CN2CCCNCCNCCCNCC2)cc1` (centres undefined), the EC50 in series [10] amounted to 0.0436 µM. `c1ccc2c(NC3CCNCC3)nc(NCc3ccc(CNCCCNC4CCCCC4)cc3)nc2c1` came in with an IC50 in series [13] of 0.0362 µM. For the compound `CC(C)Oc1ccc(-c2ccc3ccn(CC(=O)NCCN(C)C4CCCCC4)c3c2)cc1`, the IC50 in series [4] is less than 1 µM. Compound `CCN(CC)CCCC(C)Nc1cc(/C=C/c2ccc([N+](=O)[O-])cc2)nc2cc(OC)ccc12` (centres undefined) registered an IC50 in series [13] of 2.16 µM.

For orientation: CC50 means the concentration at which the toxic effect on the cells reaches its halfway point. Broadly, the bioavailability is the share of a dose that reaches the circulation, judged against a reference dose that is usually intravenous. A high value points to good availability. On to `C[C@H](NC(=O)[C@H](CCCNC(=N)N)NC(=O)c1ccc(CNCc2ccccn2)cc1)c1cccc2ccccc12`, for which, in [14], the IC50 turned out to be 0.013 µM. The EC50 in series [15] came to 0.0193 µM. Also, the CC50 in series [16] is 400 µM. Moreover, in series [17], the bioavailability stood at 7%. The compound also registered a concentration at 1 h in series [18] of 30.6 µM.

In the case of `c1ccc(CN2CCC(Nc3nccc(N4CCCCCC4)n3)C2)cc1` (centres undefined), the inhibition in series [11] is greater than 50%. The compound `CC(NC[C@@H]1CCN(CCc2c[nH]c3ccc(-n4cnnc4)cc23)C1)c1ccccc1` (some centres undefined) had an IC50 in [4] of 0.007 to 0.02 µM.

Consider `c1ccc(CCNC[C@@H]2CCN(CCc3c[nH]c4ccc(-n5cnnc5)cc34)C2)cc1`, for which, in series [4], the IC50 was 0.007 to 0.02 µM. `CCCN(CCC)CCCCNCc1ccc(CN(Cc2ncc[nH]2)Cc2ncc[nH]2)cc1`: the EC50 in [1] was determined as 0.002 µM. As for `CC(C)c1ccccc1NC(=O)NCCc1ccc2c(n1)NCCC2`, the IC50 in series [2] is 0.8 µM; in [3], 0.2 to 50 µM.

Regarding `CC(C)CN(CCCCNC(=O)c1ccc(CN(Cc2ncc[nH]2)Cc2ncc[nH]2)cc1)CC(C)C`, it took 0.003 µM to reach a half-maximal effect in series [1] (EC50). Regarding `Cn1ccc2c(NC(=O)NCCc3ccc4c(n3)NCCC4)cccc21`, the results for the IC50 in series [2] and in series [3] were 0.4 µM and 0.2 to 50 µM, respectively.

In turn, `COc1ccc2[nH]c(CNCc3ccc(CN(CCNCc4ccccn4)CCNCc4ccccn4)cc3)nc2c1` returned an IC50 in [2] of 0.004 to 0.1 µM. For `c1ccc(CNCc2ccc(CN3CCNCCc4cccc(n4)CCNCC3)cc2)nc1`, in series [12], the EC50 is 0.001 µM.

Turning to `c1ccc(CNCc2ccc(CN3CCNCCCOCCCNCC3)cc2)nc1`, in series [12], the EC50 is 0.004 µM.
